# Experiments:
# Format in all cases: in vivo, human
# [1] = test system: consumer panel (company employees); test: Sweetness perception threshold in neutral water (2-AFC); conditions: n = 30
# Text: Therefore we selected 50 ppm of PCS-3028 as the recognition threshold concentration. [table] This is a re-evaluation of the recognition threshold concentration to follow methodology outlined in section 1.4.2 of the “Guidance for the Sensory Testing of Flavorings with Modifying Properties within the FEMA GRAS™ Program”.
# [2] = test system: consumer panel (company employees); test: Sweetness perception threshold in lemon poppy seed muffin (2-AFC); conditions: n = 30
# Text: Additional threshold test data found for Lemon Poppy Seed Muffin provided in Appendix. [table] [table]
# [3] = test system: consumer panel (company employees); test: Sweetness perception threshold in puffed corn breakfast cereal (2-AFC)
# Description: […] As recommended by the FEMA Sensory guidance document,—Guidance for the Sensory Testing of Flavorings with Modifying Properties, within the FEMA GRAS™ Program, 2013—the recognition threshold concentration was determined using 2-alternateve forced choice (2-AFC) methodology.
# This is an evaluation of the recognition threshold concentration to follow methodology outlined in section 1.4.2 of the “Guidance for the Sensory Testing of Flavorings with Modifying Properties within the FEMA GRAS™ Program”.
# Sample Preparation: The puffed corn cereal (with no added sugar or flavor) purchased from local stores and sprayed with aqueous sucrose solutions using a portable atomizer to create a fine mist while tumbling the dry cereal grains. All the samples were dried to remove the added water from the samples. About 3 g of cereal was portioned into appropriately labeled blind-coded plastic 2 oz soufflé cup with lids. Samples were served dry to all panelists.
# [4] = 1.5% sucrose vs 30 ppm PCS-3028 in water
# [5] = 1.5% sucrose vs 50 ppm PCS-3028 in water
# [6] = 1.5% sucrose vs 70 ppm PCS-3028 in water
# [7] = 4% sugar vs 70 ppm PCS3028 in muffins
# [8] = 4% sugar vs 150 ppm PCS3028 in muffins
# [9] = 4% sugar vs 250 ppm PCS3028 in muffins
# [10] = Puffed Corn Cereal + vs + 250 ppm PCS-3028, n = 30
smiles,measurement,setting,value
OC[C@H]1O[C@@](CO)(O[C@H]2O[C@H](CO)[C@@H](O)[C@H](O)[C@H]2O)[C@@H](O)[C@@H]1O [Sucrose],% Frequency (sample named as sweeter),[1]; [4],96.7%
same,PC (panelists naming the sample as sweeter),[1]; [4],29
same,PC (panelists naming the sample as sweeter),[1]; [5],21
same,Percent Frequency (sample named as sweeter),[1]; [5],70.0%
same,% Frequency (sample named as sweeter),[1]; [6],10%
same,PC (panelists naming the sample as sweeter),[1]; [6],3
same,Frequency (sample named as sweeter),[2]; [7],76.7%
same,PC (panelists naming the sample as sweeter),[2]; [7],23
same,Frequency (sample named as sweeter),[2]; [8],70%
same,PC (panelists naming the sample as sweeter),[2]; [8],21
same,Frequency (sample named as sweeter),[2]; [9],33.3%
same,PC (panelists naming the sample as sweeter),[2]; [9],10
same,PC (panelists naming the sample as sweeter),"[3]; Puffed Corn Cereal + vs + 150 ppm PCS-3028, n = 30",28
same,% Frequency (sample named as sweeter),"[3]; Puffed Corn Cereal + vs + 150 ppm PCS-3028, n = 30, listed as Sugar",93.3%
same,% Frequency (sample named as sweeter),[3]; [10],43.3%
same,PC (panelists naming the sample as sweeter),[3]; [10],13

# From US12677848B2, “Stevia flavor compositions” (PURECIRCLE USA INC., priority 2019, dated 2026)
